Test [1] deals with T1, Prostaglandin E2 receptor EP2 subtype (Homo sapiens, UniProt P43116). The experiment in a line: Agonist activity at human EP2 receptor expressed in HEK293T/17 cells assessed as increase in intracellular cAMP level incubated for 30 mins by ELISA. It is filed as functional, cell-based. (Changes in cAMP serve as a functional read-out for many G protein-coupled receptors.)
The target in test [2] is T2, Prostaglandin E2 receptor EP4 subtype (Homo sapiens, UniProt P35408). In words: Displacement of [3H]PGE2 from human recombinant EP4 receptor expressed in HEK293 cell membranes after 120 mins by liquid scintillation counting method.
T2 sequence (P35408 whole entry): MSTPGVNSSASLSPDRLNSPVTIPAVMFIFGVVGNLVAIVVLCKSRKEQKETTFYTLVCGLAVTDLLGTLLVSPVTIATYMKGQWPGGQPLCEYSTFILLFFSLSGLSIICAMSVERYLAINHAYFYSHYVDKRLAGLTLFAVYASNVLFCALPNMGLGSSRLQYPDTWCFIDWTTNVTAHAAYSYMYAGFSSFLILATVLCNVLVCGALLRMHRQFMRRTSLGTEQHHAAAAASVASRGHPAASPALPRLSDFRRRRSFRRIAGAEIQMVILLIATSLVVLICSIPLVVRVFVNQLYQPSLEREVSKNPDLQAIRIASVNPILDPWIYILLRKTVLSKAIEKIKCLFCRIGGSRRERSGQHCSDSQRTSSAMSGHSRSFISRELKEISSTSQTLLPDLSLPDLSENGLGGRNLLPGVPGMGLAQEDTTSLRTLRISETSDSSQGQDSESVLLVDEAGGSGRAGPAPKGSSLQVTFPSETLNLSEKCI
Test [3] addresses T2, Prostaglandin E2 receptor EP4 subtype. In words: Agonist activity at human EP4 receptor expressed in HEK293T/17 cells assessed as increase in GalphaS-mediated CREB activation measured after 6 to 24 hrs by SEAP reporter gene-based chemiluminescence assay. Type of test: functional, cell-based.
The target of test [4] is T1, Prostaglandin E2 receptor EP2 subtype. The experiment in a line: Agonist activity at human EP2 receptor expressed in HEK293T/17 cells assessed as increase in GalphaS-mediated CREB activation measured after 6 to 24 hrs by SEAP reporter gene-based chemiluminescence assay. It is filed as functional, cell-based. On the technique in general: Reporter assays use an easily measured gene product as a stand-in for the process of interest.

For test [5] the target is unchanged. In words: Agonist activity at human EP2 receptor expressed in HEK293T/17 cells assessed as increase in intracellular cAMP level at 10 uM incubated for 30 mins by ELISA relative to control. It is filed as functional, cell-based.
In test [6] the target is T2, Prostaglandin E2 receptor EP4 subtype. The experiment in a line: Agonist activity at human EP4 receptor expressed in HEK293T/17 cells assessed as increase in intracellular cAMP level incubated for 30 mins by ELISA. It is filed as functional, cell-based.
For test [7], the target named is T1, Prostaglandin E2 receptor EP2 subtype. In words: Displacement of [3H]PGE2 from human recombinant EP2 receptor expressed in HEK293 cell membranes after 120 mins by liquid scintillation counting method. In general terms: Displacement assays read how much labelled ligand stays bound in the presence of the test substance.
For test [8], the target named is T3, Prostaglandin E2 receptor EP3 subtype (Homo sapiens, UniProt P43115).
T3 sequence (P43115 whole entry): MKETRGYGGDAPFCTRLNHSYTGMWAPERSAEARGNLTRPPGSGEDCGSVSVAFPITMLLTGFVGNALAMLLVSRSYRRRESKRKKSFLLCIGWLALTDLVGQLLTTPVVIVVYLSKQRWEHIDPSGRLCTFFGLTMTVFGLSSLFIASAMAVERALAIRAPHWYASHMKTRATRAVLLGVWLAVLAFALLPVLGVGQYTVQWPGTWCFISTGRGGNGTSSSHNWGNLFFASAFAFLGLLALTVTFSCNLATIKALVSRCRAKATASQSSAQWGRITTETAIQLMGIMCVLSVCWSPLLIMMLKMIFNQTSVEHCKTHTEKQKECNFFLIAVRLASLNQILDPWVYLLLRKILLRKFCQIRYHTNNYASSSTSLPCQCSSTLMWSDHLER
The experiment in a line: Displacement of [3H]PGE2 from human recombinant EP3 receptor expressed in HEK293 cell membranes after 120 mins by liquid scintillation counting method.

The target in test [9] is T1, Prostaglandin E2 receptor EP2 subtype. In words: Agonist activity at human EP2 receptor expressed in HEK293T/17 cells assessed as increase in GalphaS-mediated CREB activation at 10 uM measured after 6 to 24 hrs by SEAP reporter gene-based chemiluminescence assay relative to control. Type of test: functional, cell-based.

T1 sequence (P43116 whole entry): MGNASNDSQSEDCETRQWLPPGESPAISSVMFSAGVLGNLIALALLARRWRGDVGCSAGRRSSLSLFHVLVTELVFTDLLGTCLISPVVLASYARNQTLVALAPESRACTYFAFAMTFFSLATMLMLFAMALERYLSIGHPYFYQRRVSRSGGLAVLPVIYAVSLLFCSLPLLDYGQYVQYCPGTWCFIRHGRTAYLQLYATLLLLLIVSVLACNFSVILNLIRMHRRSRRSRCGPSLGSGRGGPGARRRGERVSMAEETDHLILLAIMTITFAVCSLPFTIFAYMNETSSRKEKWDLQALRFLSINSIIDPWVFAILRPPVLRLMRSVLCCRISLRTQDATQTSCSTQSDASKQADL

For the compound `CCCCC[C@H](O)/C=C/[C@H]1CC(F)(F)C(=O)N1CCCCCCC(=O)O`, the EC50 (in general, the concentration that produces a half-maximal response) is greater than 10000 nM in test [1], 0.021 nM in test [3], 2270 nM in [4] and 0.348 nM in [6]. Besides, the Ki (commonly the equilibrium dissociation constant of an inhibitor or competing ligand from its target) in test [2] turned out to be 0.2 nM; in test [7], 329 nM; in test [8], 350 nM. The Activity in [5] is less than 50%.
As for `COCc1cccc(C[C@H](O)/C=C/[C@H]2[C@H](O)CC(=O)[C@@H]2CCSCCCC(=O)O)c1`, the EC50 was 10000 nM in test [1], 0.01 nM in test [3] and 610 nM in test [4]. The Ki in [2] is 0.396 nM. Besides, in test [5], the Activity is less than 50%.
Turning to `CCCCC[C@H](O)/C=C/[C@H]1CCC(=O)N1CCCCCCC(=O)O`, the values for the EC50 in [1], in test [3] and in [4] were greater than 10000 nM, 0.065 nM and greater than 10000 nM, respectively. The Ki in test [2] was 1.61 nM; in test [7], 1460 nM; in test [8], 1170 nM. Further, the Activity in test [5] and in test [9] was less than 50% in each case.
